Data on 50 molecules can be found in PMC10764104, “Discovery of Molecular Glue Degraders via Isogenic Morphological Profiling” (ACS Chemical Biology, 2023).

The structures appear in SMILES notation.

As usually defined, the EC50 is the concentration giving half of the maximal effect.

The target in this experiment is T1, recombinant DDB1-CRBN (Homo sapiens, UniProt Q96SW2).
T1 construct: His; made in house; host or cells: High Five insect cells (baculovirus made and propagated in SF9 cells)
Description: Fluorescence polarization-based competition assay for CRBN binding. Conditions: 200 nM CRBN-DDB1, 20 nM pomalidomide-fluorescein tracer 16, triplicates; read-out: FP_CRBN_binding: CRBN binding affinity, EC50. The procedure: Prior to screening the compound library in the isogenic CPA, we assessed their CRBN binding affinities using a fluorescence-polarization-based competition assay with recombinant DDB1-CRBN and the fluorescent tracer 16 (Figure S2). […] We also assessed the cytotoxicity of the CRBN binders in RKO wild-type (WT) cells to determine the appropriate treatment concentration. […]
Fluorescence Polarization‐based competition assay
Fluorescence Polarization assays were performed in 384‐well, Low Volume, Black, Round Bottom, Polystyrene Nonbinding surface Microplates (Corning, #4514). The test compounds were incubated with 200 nM CRBN‐DDB1 and 20 nM Pomalidomide‐fluorescein tracer 16 in 50 mM Tris‐HCl pH 7.5, 200 mM NaCl, 1 mM DTT, 0.02% Triton X‐ 100, and 0.1 µg/µL Bovine Serum Albumin (Sigma Aldrich, #A7030) in a total volume of 25 µL. Fluorescence polarization values were determined with a PerkinElmer Envision reader with FITC FP dual mirror and FITC FP 480 excitation filter and FITC FP 535 emission filters. Fluorescence polarization values of a 10x serial dilution (10 nM to 100 µM) of the test compounds were determined in triplicates. EC50 values were calculated with GraphPad Prism software (version 10.0.2) with a non‐linear fit function (4PL sigmoidal curve fit) adjusting the bottom constrain to the FP value of free tracer. […]
For orientation: In fluorescence polarisation assays a small probe gives low polarisation when free and higher when bound to something large.
For `O=C1CCC(N2C(=O)c3cccc(Nc4cccc(OS(=O)(=O)N5CCC(c6ccco6)C5)c4)c3C2=O)C(=O)N1` (centres unmarked) [FL3-12], the EC50 was determined as 2700 nM.

Consider `Cc1cn2c(n1)CN(S(=O)(=O)Oc1cccc(Nc3cccc4c3C(=O)N(C3CCC(=O)NC3=O)C4=O)c1)CC2` (centres unmarked) [FL3-13], for which the EC50 is 472 nM.

As for `CN(Cc1ncc(C2CC2)o1)S(=O)(=O)Oc1cccc(Nc2cccc3c2C(=O)N(C2CCC(=O)NC2=O)C3=O)c1` (centres unmarked) [FL3-14], the EC50 worked out at 882 nM.

Take `CN(Cc1ccc2[nH]nnc2c1)S(=O)(=O)Oc1cccc(Nc2cccc3c2C(=O)N(C2CCC(=O)NC2=O)C3=O)c1` (centres unmarked) [FL3-15]: the EC50 amounted to 990 nM.

Regarding `O=C1CCC(N2C(=O)c3cccc(Nc4cccc(OS(=O)(=O)N5CCC(c6ccncc6)CC5)c4)c3C2=O)C(=O)N1` (centres unmarked) [FL3-16], the EC50 was 264 nM.

As for `CC1c2cc(F)ccc2CCN1S(=O)(=O)Oc1cccc(Nc2cccc3c2C(=O)N(C2CCC(=O)NC2=O)C3=O)c1` (centres unmarked) [FL3-17], the EC50 stood at 1310 nM.

Turning to `CN(C)c1ncc(CN(C)S(=O)(=O)Oc2cccc(Nc3cccc4c3C(=O)N(C3CCC(=O)NC3=O)C4=O)c2)cn1` (centres unmarked) [FL3-18], the EC50 came out at 676 nM.

In the case of `CC1c2cccn2CCN1S(=O)(=O)Oc1cccc(Nc2cccc3c2C(=O)N(C2CCC(=O)NC2=O)C3=O)c1` (centres unmarked) [FL3-19], the EC50 was found to be 742 nM.

As for `CN(Cc1ccc2c(c1)OCO2)S(=O)(=O)Oc1cccc(Nc2cccc3c2C(=O)N(C2CCC(=O)NC2=O)C3=O)c1` (centres unmarked) [FL3-20], the EC50 was 1570 nM.

Consider `CN(C1CC1)S(=O)(=O)Oc1cccc(Nc2cccc3c2C(=O)N(C2CCC(=O)NC2=O)C3=O)c1` (centres unmarked) [FL3-21], for which the EC50 was determined as 1020 nM.

With `CC(O)CN(C)S(=O)(=O)Oc1ccc(Nc2cccc3c2C(=O)N(C2CCC(=O)NC2=O)C3=O)cc1` (centres unmarked) [FL4-1], the EC50 worked out at 370 nM.

With `O=C1CCC(N2C(=O)c3cccc(Nc4ccc(OS(=O)(=O)N5CC(CCO)C5)cc4)c3C2=O)C(=O)N1` (centres unmarked) [FL4-2], the EC50 was determined as 557 nM.

Regarding `CC(C)(O)C1CCN(S(=O)(=O)Oc2ccc(Nc3cccc4c3C(=O)N(C3CCC(=O)NC3=O)C4=O)cc2)C1` (centres unmarked) [FL4-4], the EC50 was 688 nM.

With `O=C1CCC(N2C(=O)c3cccc(Nc4ccc(OS(=O)(=O)N5CCOCC5)cc4)c3C2=O)C(=O)N1` (centres unmarked) [FL4-5], the EC50 was 652 nM.

As for `C[C@@H]1C[C@H](C)CN(S(=O)(=O)Oc2ccc(Nc3cccc4c3C(=O)N(C3CCC(=O)NC3=O)C4=O)cc2)C1` (some centres unmarked) [FL4-6], the EC50 worked out at 3650 nM.

For `CC1(C)CN(S(=O)(=O)Oc2ccc(Nc3cccc4c3C(=O)N(C3CCC(=O)NC3=O)C4=O)cc2)CCS1(=O)=O` (centres unmarked) [FL4-7], the EC50 came to 741 nM.

Take `CC1(C)CN(S(=O)(=O)Oc2ccc(Nc3cccc4c3C(=O)N(C3CCC(=O)NC3=O)C4=O)cc2)CC2(CCOC2)O1` (centres unmarked) [FL4-8]: the EC50 was 1960 nM.

Regarding `O=C1CCC(N2C(=O)c3cccc(Nc4ccc(OS(=O)(=O)N5CC6(CNC(=O)N6)C5)cc4)c3C2=O)C(=O)N1` (centres unmarked) [FL4-9], the EC50 was determined as 445 nM.

Take `O=C1CCC(N2C(=O)c3cccc(Nc4ccc(OS(=O)(=O)N5C[C@@H](F)[C@H](F)C5)cc4)c3C2=O)C(=O)N1` (some centres unmarked) [FL4-10]: the EC50 was 830 nM.

In the case of `CN(Cc1ncnn1C)S(=O)(=O)Oc1ccc(Nc2cccc3c2C(=O)N(C2CCC(=O)NC2=O)C3=O)cc1` (centres unmarked) [FL4-11], the EC50 came to 538 nM.

For the molecule `O=C1CCC(N2C(=O)c3cccc(Nc4ccc(OS(=O)(=O)N5CCC(c6ccco6)C5)cc4)c3C2=O)C(=O)N1` (centres unmarked) [FL4-12], the EC50 was 4560 nM.

As for `Cc1cn2c(n1)CN(S(=O)(=O)Oc1ccc(Nc3cccc4c3C(=O)N(C3CCC(=O)NC3=O)C4=O)cc1)CC2` (centres unmarked) [FL4-13], the EC50 came out at 463 nM.

As for `CN(Cc1ncc(C2CC2)o1)S(=O)(=O)Oc1ccc(Nc2cccc3c2C(=O)N(C2CCC(=O)NC2=O)C3=O)cc1` (centres unmarked) [FL4-14], the EC50 is 996 nM.

For the molecule `CN(Cc1ccc2[nH]nnc2c1)S(=O)(=O)Oc1ccc(Nc2cccc3c2C(=O)N(C2CCC(=O)NC2=O)C3=O)cc1` (centres unmarked) [FL4-15], the EC50 came to 2130 nM.

On to `O=C1CCC(N2C(=O)c3cccc(Nc4ccc(OS(=O)(=O)N5CCC(c6ccncc6)CC5)cc4)c3C2=O)C(=O)N1` (centres unmarked) [FL4-16], for which the EC50 worked out at 971 nM.

Regarding `CC1c2cc(F)ccc2CCN1S(=O)(=O)Oc1ccc(Nc2cccc3c2C(=O)N(C2CCC(=O)NC2=O)C3=O)cc1` (centres unmarked) [FL4-17], the EC50 was 983 nM.

On to `CN(C)c1ncc(CN(C)S(=O)(=O)Oc2ccc(Nc3cccc4c3C(=O)N(C3CCC(=O)NC3=O)C4=O)cc2)cn1` (centres unmarked) [FL4-18], for which the EC50 is 1610 nM.

`CC1c2cccn2CCN1S(=O)(=O)Oc1ccc(Nc2cccc3c2C(=O)N(C2CCC(=O)NC2=O)C3=O)cc1` (centres unmarked) [FL4-19]: the EC50 came out at 687 nM.

For the molecule `CN(Cc1ccc2c(c1)OCO2)S(=O)(=O)Oc1ccc(Nc2cccc3c2C(=O)N(C2CCC(=O)NC2=O)C3=O)cc1` (centres unmarked) [FL4-20], the EC50 came to 1720 nM.

Take `CN(C1CC1)S(=O)(=O)Oc1ccc(Nc2cccc3c2C(=O)N(C2CCC(=O)NC2=O)C3=O)cc1` (centres unmarked) [FL4-21]: the half-maximal effective concentration (EC50) worked out at 1080 nM.

Regarding `C[C@@H](O)CN(C)S(=O)(=O)Oc1ccc(C2CCC(=O)NC2=O)cc1` (some centres unmarked) [FL5-1], the EC50 was 914 nM.

`O=C1CCC(c2ccc(OS(=O)(=O)N3CC(CCO)C3)cc2)C(=O)N1` (centres unmarked) [FL5-2]: the EC50 was found to be 1060 nM.

As to `CC(C)(O)C1CCN(S(=O)(=O)Oc2ccc(C3CCC(=O)NC3=O)cc2)C1` (centres unmarked) [FL5-4], the EC50 is 948 nM.

As for `O=C1CCC(c2ccc(OS(=O)(=O)N3CCOCC3)cc2)C(=O)N1` (centres unmarked) [FL5-5], the EC50 was found to be 829 nM.

In the case of `C[C@@H]1C[C@H](C)CN(S(=O)(=O)Oc2ccc(C3CCC(=O)NC3=O)cc2)C1` (some centres unmarked) [FL5-6], the EC50 was determined as 4690 nM.

`CC1(C)CN(S(=O)(=O)Oc2ccc(C3CCC(=O)NC3=O)cc2)CCS1(=O)=O` (centres unmarked) [FL5-7]: the EC50 stood at 864 nM.

With `CC1(C)CN(S(=O)(=O)Oc2ccc(C3CCC(=O)NC3=O)cc2)CC2(CCOC2)O1` (centres unmarked) [FL5-8], the EC50 stood at 1340 nM.

For the molecule `O=C1CCC(c2ccc(OS(=O)(=O)N3CC4(CNC(=O)N4)C3)cc2)C(=O)N1` (centres unmarked) [FL5-9], the EC50 stood at 1050 nM.

As for `O=C1CCC(c2ccc(OS(=O)(=O)N3C[C@@H](F)[C@H](F)C3)cc2)C(=O)N1` (some centres unmarked) [FL5-10], the EC50 came out at 893 nM.

Consider `CN(Cc1ncnn1C)S(=O)(=O)Oc1ccc(C2CCC(=O)NC2=O)cc1` (centres unmarked) [FL5-11], for which the EC50 came out at 1270 nM.

Regarding `O=C1CCC(c2ccc(OS(=O)(=O)N3CCC(c4ccco4)C3)cc2)C(=O)N1` (centres unmarked) [FL5-12], the EC50 was determined as 705 nM.

In the case of `Cc1cn2c(n1)CN(S(=O)(=O)Oc1ccc(C3CCC(=O)NC3=O)cc1)CC2` (centres unmarked) [FL5-13], the EC50 stood at 771 nM.

Turning to `CN(Cc1ncc(C2CC2)o1)S(=O)(=O)Oc1ccc(C2CCC(=O)NC2=O)cc1` (centres unmarked) [FL5-14], the EC50 was found to be 600 nM.

Turning to `CN(Cc1ccc2[nH]nnc2c1)S(=O)(=O)Oc1ccc(C2CCC(=O)NC2=O)cc1` (centres unmarked) [FL5-15], the EC50 was 502 nM.

In the case of `O=C1CCC(c2ccc(OS(=O)(=O)N3CCC(c4ccncc4)CC3)cc2)C(=O)N1` (centres unmarked) [FL5-16], the EC50 is 4220 nM.

For `CC1c2cc(F)ccc2CCN1S(=O)(=O)Oc1ccc(C2CCC(=O)NC2=O)cc1` (centres unmarked) [FL5-17], the EC50 is 908 nM.

In the case of `CN(C)c1ncc(CN(C)S(=O)(=O)Oc2ccc(C3CCC(=O)NC3=O)cc2)cn1` (centres unmarked) [FL5-18], the EC50 came to 586 nM.

As for `CC1c2cccn2CCN1S(=O)(=O)Oc1ccc(C2CCC(=O)NC2=O)cc1` (centres unmarked) [FL5-19], the EC50 worked out at 940 nM.

Take `CN(Cc1ccc2c(c1)OCO2)S(=O)(=O)Oc1ccc(C2CCC(=O)NC2=O)cc1` (centres unmarked) [FL5-20]: the EC50 was found to be 775 nM.

Turning to `CN(C1CC1)S(=O)(=O)Oc1ccc(C2CCC(=O)NC2=O)cc1` (centres unmarked) [FL5-21], the EC50 worked out at 899 nM.
